Measured values from PubChem BioAssay (NCI).
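Each compound was tested at five concentrations against cells in 96-well plates for 48 hours. GI50: concentration for 50% inhibition of growth. TGI: total growth inhibition.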

How the values were obtained:
Experiment in all cases: NCI-60 cell line screen, 48 h
786-0 renal = tested on: 786-0 renal
A498 renal = tested on: A498 renal
A549 NSCLC = tested on: A549 NSCLC
ACHN renal = tested on: ACHN renal
BT-549 breast = tested on: BT-549 breast
CAKI-1 renal = tested on: CAKI-1 renal
CCRF-CEM leukemia = tested on: CCRF-CEM leukemia
COLO 205 colon = tested on: COLO 205 colon
HCC-2998 colon = tested on: HCC-2998 colon
HCT-116 colon = tested on: HCT-116 colon
HCT-15 colon = tested on: HCT-15 colon
HL-60(TB) leukemia = tested on: HL-60(TB) leukemia
HOP-62 NSCLC = tested on: HOP-62 NSCLC
HOP-92 NSCLC = tested on: HOP-92 NSCLC
HS 578T breast = tested on: HS 578T breast
HT29 colon = tested on: HT29 colon
IGROV1 ovarian = tested on: IGROV1 ovarian
K-562 leukemia = tested on: K-562 leukemia
KM12 colon = tested on: KM12 colon
LOX IMVI melanoma = tested on: LOX IMVI melanoma
M14 melanoma = tested on: M14 melanoma
MALME-3M melanoma = tested on: MALME-3M melanoma
MCF7 breast = tested on: MCF7 breast
MDA-MB-231 breast = tested on: MDA-MB-231 breast
MDA-MB-435 = tested on: MDA-MB-435
MOLT-4 leukemia = tested on: MOLT-4 leukemia
NCI-H226 lung = tested on: NCI-H226 lung
NCI-H23 lung = tested on: NCI-H23 lung
NCI-H460 lung = tested on: NCI-H460 lung
NCI-H522 lung = tested on: NCI-H522 lung
NCI/ADR-RES ovarian = tested on: NCI/ADR-RES ovarian
OVCAR-3 ovarian = tested on: OVCAR-3 ovarian
OVCAR-4 ovarian = tested on: OVCAR-4 ovarian
OVCAR-5 ovarian = tested on: OVCAR-5 ovarian
OVCAR-8 ovarian = tested on: OVCAR-8 ovarian
PC-3 prostate = tested on: PC-3 prostate
RPMI-8226 leukemia = tested on: RPMI-8226 leukemia
RXF 393 renal = tested on: RXF 393 renal
SF-268 CNS = tested on: SF-268 CNS
SF-539 CNS = tested on: SF-539 CNS
SK-MEL-2 melanoma = tested on: SK-MEL-2 melanoma
SK-MEL-28 melanoma = tested on: SK-MEL-28 melanoma
SK-MEL-5 melanoma = tested on: SK-MEL-5 melanoma
SK-OV-3 ovarian = tested on: SK-OV-3 ovarian
SN12C renal = tested on: SN12C renal
SNB-19 CNS = tested on: SNB-19 CNS
SR leukemia = tested on: SR leukemia
SW-620 colon = tested on: SW-620 colon
T-47D breast = tested on: T-47D breast
TK-10 renal = tested on: TK-10 renal
U251 CNS = tested on: U251 CNS
UACC-257 melanoma = tested on: UACC-257 melanoma
UACC-62 melanoma = tested on: UACC-62 melanoma
UO-31 renal = tested on: UO-31 renal

COc1cc(-c2cc(/C=C/C(=O)c3ccc(Cl)c(Cl)c3)[nH]n2)cc(OC)c1OC
GI50 (786-0 renal): 10.1 µM | TGI (786-0 renal): 68 µM | GI50 (A498 renal): 5.89 µM | TGI (A498 renal): 43 µM | GI50 (A549 NSCLC): 18.7 µM | TGI (A549 NSCLC): > 100 µM | GI50 (ACHN renal): 21.4 µM | TGI (ACHN renal): > 100 µM | GI50 (BT-549 breast): 8.4 µM | TGI (BT-549 breast): 29.2 µM | GI50 (CAKI-1 renal): 16.9 µM | TGI (CAKI-1 renal): > 100 µM | GI50 (CCRF-CEM leukemia): 2.15 µM | TGI (CCRF-CEM leukemia): 23.5 µM | GI50 (COLO 205 colon): 1.26 µM | TGI (COLO 205 colon): 15.8 µM | GI50 (HCC-2998 colon): 9.56 µM | TGI (HCC-2998 colon): 31.4 µM | GI50 (HCT-116 colon): 2.95 µM | TGI (HCT-116 colon): 21.5 µM | GI50 (HCT-15 colon): 4.29 µM | GI50 (HL-60(TB) leukemia): 7.18 µM | TGI (HL-60(TB) leukemia): 36.7 µM | GI50 (HOP-62 NSCLC): 1.72 µM | TGI (HOP-62 NSCLC): 7.66 µM | GI50 (HOP-92 NSCLC): 2.53 µM | TGI (HOP-92 NSCLC): 8.25 µM | GI50 (HS 578T breast): 16.6 µM | TGI (HS 578T breast): > 100 µM | GI50 (HT29 colon): 11.5 µM | TGI (HT29 colon): > 100 µM | GI50 (IGROV1 ovarian): 24 µM | TGI (IGROV1 ovarian): > 100 µM | GI50 (K-562 leukemia): 4.96 µM | TGI (K-562 leukemia): 64.4 µM | GI50 (KM12 colon): 3.37 µM | TGI (KM12 colon): > 100 µM | GI50 (LOX IMVI melanoma): 3.39 µM | TGI (LOX IMVI melanoma): 16.4 µM | GI50 (M14 melanoma): 18.2 µM | TGI (M14 melanoma): > 100 µM | GI50 (MALME-3M melanoma): 29.2 µM | TGI (MALME-3M melanoma): > 100 µM | GI50 (MCF7 breast): 1.8 µM | TGI (MCF7 breast): > 100 µM | GI50 (MDA-MB-231 breast): 8.65 µM | TGI (MDA-MB-231 breast): > 100 µM | GI50 (MDA-MB-435): 5.65 µM | TGI (MDA-MB-435): > 100 µM | GI50 (MOLT-4 leukemia): 4.38 µM | TGI (MOLT-4 leukemia): 40.6 µM | GI50 (NCI-H226 lung): 18.6 µM | TGI (NCI-H226 lung): > 100 µM | GI50 (NCI-H23 lung): 23.4 µM | TGI (NCI-H23 lung): > 100 µM | GI50 (NCI-H460 lung): 4.91 µM | TGI (NCI-H460 lung): 36.6 µM | GI50 (NCI-H522 lung): 1.33 µM | TGI (NCI-H522 lung): 3.04 µM | GI50 (NCI/ADR-RES ovarian): 10.6 µM | TGI (NCI/ADR-RES ovarian): > 100 µM | GI50 (OVCAR-3 ovarian): 6.99 µM | TGI (OVCAR-3 ovarian): 37.8 µM | GI50 (OVCAR-4 ovarian): 10.8 µM | TGI (OVCAR-4 ovarian): 50.9 µM | GI50 (OVCAR-5 ovarian): 20.5 µM | TGI (OVCAR-5 ovarian): > 100 µM | GI50 (OVCAR-8 ovarian): 6.3 µM | TGI (OVCAR-8 ovarian): 34 µM | GI50 (PC-3 prostate): 5.96 µM | TGI (PC-3 prostate): > 100 µM | GI50 (RPMI-8226 leukemia): 0.538 µM | TGI (RPMI-8226 leukemia): 6.73 µM | GI50 (RXF 393 renal): 2.7 µM | TGI (RXF 393 renal): 12.8 µM | GI50 (SF-268 CNS): 13.7 µM | TGI (SF-268 CNS): 63.3 µM | GI50 (SF-539 CNS): 4.31 µM | TGI (SF-539 CNS): 18.7 µM | GI50 (SK-MEL-2 melanoma): 13.9 µM | TGI (SK-MEL-2 melanoma): 34.1 µM | GI50 (SK-MEL-28 melanoma): 18.1 µM | TGI (SK-MEL-28 melanoma): 66 µM | GI50 (SK-MEL-5 melanoma): 13.4 µM | TGI (SK-MEL-5 melanoma): 46.9 µM | GI50 (SK-OV-3 ovarian): 4.19 µM | TGI (SK-OV-3 ovarian): 18.8 µM | GI50 (SN12C renal): 13.7 µM | TGI (SN12C renal): > 100 µM | GI50 (SNB-19 CNS): 9.83 µM | TGI (SNB-19 CNS): > 100 µM | GI50 (SR leukemia): 0.393 µM | TGI (SR leukemia): 13.5 µM | GI50 (SW-620 colon): 8.63 µM | TGI (SW-620 colon): 79.6 µM | GI50 (T-47D breast): 1.66 µM | TGI (T-47D breast): 15.7 µM | GI50 (TK-10 renal): 8.34 µM | TGI (TK-10 renal): 43.2 µM | GI50 (U251 CNS): 8.7 µM | TGI (U251 CNS): 80.5 µM | GI50 (UACC-257 melanoma): 16.3 µM | TGI (UACC-257 melanoma): 74 µM | GI50 (UACC-62 melanoma): 18.8 µM | TGI (UACC-62 melanoma): > 100 µM | GI50 (UO-31 renal): 5.73 µM | TGI (UO-31 renal): > 100 µM
